Columns and labels:
[1] = target: T1, human EP1 receptor (Homo sapiens, UniProt P34995); assay: Test 1: Human EP1 receptor radioligand binding assay ([3H]-PGE2, transfected HEK-293 cell membranes); design: expressed in transfected cells; host or cells: HEK-293 cell membranes; settings: read-out: Results of Test 1 (Binding assay), % inh
T1 sequence (P34995 1-402): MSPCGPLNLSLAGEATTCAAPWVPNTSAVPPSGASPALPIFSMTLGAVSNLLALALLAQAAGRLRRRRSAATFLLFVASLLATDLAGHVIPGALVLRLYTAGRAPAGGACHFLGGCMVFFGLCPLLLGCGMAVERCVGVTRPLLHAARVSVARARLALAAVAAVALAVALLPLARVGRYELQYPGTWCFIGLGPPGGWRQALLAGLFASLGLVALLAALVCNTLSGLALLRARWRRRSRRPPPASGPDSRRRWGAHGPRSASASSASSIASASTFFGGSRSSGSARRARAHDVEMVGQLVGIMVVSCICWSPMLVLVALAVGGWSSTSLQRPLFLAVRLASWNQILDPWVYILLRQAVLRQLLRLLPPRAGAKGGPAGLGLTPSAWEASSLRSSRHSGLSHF
Method: Test 1: Human EP1 Receptor Radioligand Binding Assay
To investigate binding properties of EP1 receptor ligands to human EP1 receptor, transfected HEK-293 cell membranes and [3H]-PGE2 (Perkin Elmer) were used. In 96-well plates the assay was carried out with a total reaction volume of 250 μl, containing 25 μl of membrane suspension (30 μg protein/well), 25 μl of [3H]-PGE2 (10 nM) in either absence or presence of 25 μl of either buffer or PGE2 (10 μM) for total and non-specific binding, respectively. Binding buffer contained 10 mM MES, 1 mM MgCl2 and 1 mM EDTA at pH 6.0. Plates were incubated at 25° C. for 60 minutes. After the incubation period, 200 μl of incubate were transferred to MultiScreen HTS, FB plates (Millipore), filtered and plates were washed 6 times with ice-cold 10 mM MES, 1 mM MgCl2 and 1 mM EDTA at pH 6.0. Filters were dried and counted in a MicroBeta scintillation counter (Perkin-Elmer) using EcoScint liquid scintillation cocktail.
Percentage inhibition was calculated relating compounds activity to the 0% inhibition of the wells incubated with 10 nM [3H]-PGE2 alone (total binding) and 100% inhibition of the wells incubated with 10 nM [3H]-PGE2 plus 10 μM PGE2 (non-specific binding).

[2] = target: T1, human EP1 receptor; assay: Test 2: Measurement of IP1 responses by HTRF, suspended HEK-293 cells stably expressing human EP1 receptors, PGE2 30 nM; type: cell-based; design: expressed in transfected cells; settings: HEK293, at 10 μM, read-out: Results of Test 2 (Functional assay), % inh
Method: Test 2: Measurement of IP1 responses by Homogeneous Time Resolved Fluorescence
IP1 measurements on HEK-293 cells that stably expressed human EP1 receptors were performed by using a system based on Homogeneous Time Resolved Fluorescense (HTRF) (Gabriel et al., 2003). This technology allows the direct measurement of IP1 in living cells. The principle of this assay is based on competition between IP1 produced by cells and IP1-d2 conjugate for the binding with monoclonal anti-IP1-cryptate conjugate. The HTRF IP1 kit from CisBio was used according to the manufacturer's directions. The experimental procedure was performed as stated below.
Suspended cells (30,000 cells per well) were added to 96-well culture plates in 40 μl of stimulation buffer (supplied by the kit). Compounds were then added in 20 μl of stimulation buffer and incubated at 37° C. for 15 minutes followed by 10 μl of PGE2 to a final concentration of […]. After 90 minutes at 37° C., the reaction was stopped lysing the cells with a mixture of 15 μl of cryptate and 15 μl of IP1-d2 prepared in the lysis buffer supplied by the manufacturer. Plates were incubated for an additional hour at room temperature and read at 665 nm/620 nm using an UltraEvolution Plate reader (Tecan).
Antagonist percentage inhibition was calculated relating compounds activity to the 0% inhibition of the wells incubated with 10 nM PGE2 alone and 100% inhibition of the wells incubated with 10 nM PGE2 plus 1 μM of the reference antagonist.

Row | SMILES | inhibition at 10 µM [1] [%] | inhibition at 10 µM [2] [%]
1 | O=C(O)c1cccc2c1ccn2Cc1cc(C(F)(F)F)ccc1OCc1cccc(F)c1 [Example 49, 1-(2-((3-fluorobenzyl)oxy)-5-(trifluoromethyl)benzyl)-1H-indole-4-carboxylic acid] | 45 to 75 | > 75
2 | O=C(O)c1cccc2c1ccn2Cc1cc(Cl)ccc1OCc1ccc(F)c(F)c1F [Example 21, 1-(5-chloro-2-((2,3,4-trifluorobenzyl)oxy)benzyl)-1H-indole-4-carboxylic acid] | 45 to 75 | > 75
3 | O=C(O)c1cccc2c1ccn2Cc1cc(Cl)ccc1OCc1ccc(Cl)cc1F [Example 48, 1-(5-chloro-2-((4-chloro-2-fluorobenzyl)oxy)benzyl)-1H-indole-4-carboxylic acid] | > 75 | > 75
4 | O=C(O)c1cccc2c1ccn2Cc1cc(Cl)ccc1OCc1ccc(C(F)(F)F)cc1 [Example 11, 1-(5-chloro-2-((4-(trifluoromethyl)benzyl)oxy)benzyl)-1H-indole-4-carboxylic acid] | > 75 | > 75
5 | O=C(O)c1cccc2c1ccn2Cc1cc(Cl)ccc1OCc1ccc(F)c(Br)c1 [Example 17, 1-(2-((3-bromo-4-fluorobenzyl)oxy)-5-chlorobenzyl)-1H-indole-4-carboxylic acid] | 45 to 75 | > 75
6 | O=C(O)c1cccc2c1ccn2Cc1cc(F)ccc1OCc1cc(F)ccc1Cl [Example 38, 1-(2-((2-chloro-5-fluorobenzyl)oxy)-5-fluorobenzyl)-1H-indole-4-carboxylic acid] |  | > 75
7 | O=C(O)c1cccc2c1ccn2Cc1cc(F)ccc1OCc1ccc(F)cc1C(F)(F)F [Example 18, 1-(5-fluoro-2-((4-fluoro-2-(trifluoromethyl)benzyl)oxy)benzyl)-1H-indole-4-carboxylic acid] |  | > 75
8 | CC(c1cc(Cl)ccc1OCc1ccc(Cl)cc1F)n1ccc2c(C(=O)O)cccc21 (stereo not drawn) [Example 42, 1-(1-(5-chloro-2-((4-chloro-2-fluorobenzyl)oxy)phenyl)ethyl)-1H-indole-4-carboxylic acid] |  | > 75
9 | O=C(O)c1ccc2ccn(Cc3cc(Br)ccc3OCc3ccccc3)c2c1 [Example 87, 1-(2-(benzyloxy)-5-bromobenzyl)-1H-indole-6-carboxylic acid] |  | > 75
10 | O=C(O)c1ccc2c(ccn2Cc2cc(Cl)ccc2OCc2ccc(F)cc2F)c1 [Example 78] |  | > 75
11 | O=C(O)c1cccc2c1ccn2Cc1cc(C(F)(F)F)ccc1OCc1ccc(Cl)cc1F [Example 6, 1-(2-((4-chloro-2-fluorobenzyl)oxy)-5-(trifluoromethyl)benzyl)-1H-indole-4-carboxylic acid] |  | > 75
12 | O=C(O)c1cccc2c1ccn2Cc1cc(F)ccc1OCc1ccc(F)cc1 [Example 35, 1-(5-fluoro-2-((4-fluorobenzyl)oxy)benzyl)-1H-indole-4-carboxylic acid] |  | > 75
13 | O=C(O)c1cccc2c1ccn2Cc1cc(Cl)ccc1OCc1ccc(F)cc1F [Example 43, 1-(5-chloro-2-((2,4-difluorobenzyl)oxy)benzyl)-1H-indole-4-carboxylic acid] |  | > 75
14 | O=C(O)c1cccc2c1ncn2Cc1cc(Cl)ccc1OCc1ccc(Cl)cc1F [Example 92, 1-(5-chloro-2-((4-chloro-2-fluorobenzyl)oxy)benzyl) -1H-benzo[d]imidazole-4-carboxylic acid] |  | 45 to 75
15 | O=C(O)c1cccc2c1ccn2Cc1cc(C(F)(F)F)ccc1OCc1ccccc1 [Example 3, 1-(2-(benzyloxy)-5-(trifluoromethyl)benzyl)-1H-indole-4-carboxylic acid] |  | > 75
16 | O=C(O)c1cccc2c1ccn2Cc1cc(Cl)cc(Br)c1OCc1c(F)cccc1F [Example 40, 1-(3-bromo-5-chloro-2-((2,6-difluorobenzyl)oxy)benzyl)-1H-indole-4-carboxylic acid] |  | 45 to 75

Source: US9518015B2, “EP1 receptor ligands” (LABORATORIOS DEL DR. ESTEVE, S.A., priority 2011, dated 2016)
